The record followed here is ChEMBL document CHEMBL3046534, “QSAR modeling of the inhibition of reverse transcriptase enzyme with benzimidazolone analogs” (Med Chem Res, 2011).

This assay relates to Human immunodeficiency virus 1. As to the kind of experiment: Antiviral activity against Human immunodeficiency virus 1 infected human MT4 cells assessed as protection against virus-induced cytopathic effect. The following applies: Human immunodeficiency virus 1, MT4; for pEC50: read-out: EC50; for EC50: read-out: pEC50 (converted). Format: functional, organism-based.

pEC50: −log10 of the molar value.

For `CC(C)c1ccc(Cn2c(O)nc3ccc(Cl)cc32)cc1`, the negative logarithm of the EC50 (pEC50) is 5.55 and the EC50 was 2.83 µM.
On to `O=c1oc2ccc(Cl)cc2n1Cc1c(F)cccc1F`, for which the pEC50 is 5.43 and the EC50 is 3.72 µM.
For the compound `Oc1nc2ccc(Cl)cc2n1Cc1cccc2ccccc12`, the pEC50 is 6.06 and the EC50 was 0.87 µM.
Consider `O=c1[nH]c2ccc(Cl)cc2n1Cc1c(F)cccc1F`, for which the EC50 is 0.534 µM.
In the case of `Oc1nc2cc(Cl)ccc2n1Cc1c(F)cccc1F`, the pEC50 was 4.53 and the EC50 was 29.6 µM.

What is called pEC50 is the EC50 on a negative log10 scale, so that one unit is a factor of ten.
